We go through two compounds from patent publication EP0768881B1, “ANTI-HIV TRIPLE COMBINATION COMPRISING ZIDOVUDINE, LAMIVUDINE AND LOVIRIDE” (JANSSEN PHARMACEUTICA N.V., priority 1994, dated 1996).

Molecules are shown by their SMILES.

For one data set, the system named is CD4 cells. The note with it: patients receiving established anti-HIV drugs alone; count then decreases again; cited from earlier work.
Data set [1] can be described thus: Pharmacokinetic interaction between components in open case-control study. The settings on record: between lamivudine and zidovudine or loviride. Type of data set: in vivo, HIV-1 infected patients. As for the experimental part:
The triple combination of zidovudine (200 mg t.i.d.), lamivudine (300 mg b.i.d.) and loviride (100 mg t.i.d.) versus the double combination of zidovudine (200 mg t.i.d.) and loviride (100 mg t.i.d.) was assessed in an open case-control study. Twenty HIV-1 infected patients with a positive p24 antigen test at baseline were included. Both combinations were well tolerated. Serious drug-induced safety-related abnormalities were not observed. […] The median CD4 count (% versus baseline) during therapy in the group of patients treated with the triple combination were compared with the median CD4 count in the group of patients treated with the double combination in Table 1. The median p24 antigen count (% versus baseline) of the group of patients treated with the triple combination were compared with the median p24 antigen count of the group of patients treated with double combination in Table 2.

`Nc1ccn([C@H]2CS[C@@H](CO)O2)c(=O)n1` [lamivudine, (-)-2',3'-dideoxy-3'-thiacytidine]: the CD4 count increase result in the data set on CD4 cells is “about 20%”. Also, in data set [1], the pharmacokinetic interaction entry is given as “No clinically relevant pharmacokinetic interaction”. Take `Cc1cn([C@H]2C[C@H](N=[N+]=[N-])[C@@H](CO)O2)c(=O)[nH]c1=O` [zidovudine, 3'-azido-3'-deoxythymidine]: in the data set on CD4 cells, the CD4 count increase result is “about 20%”.
